The source of these data is the supplement of paper PMC10307832.

Experiment in all cases: relative viability (nuclei count vs DMSO), 5 days (fraction); higher = more cells survive
Compound in assay [1]: C1=CC(=CC=C1NC(=S)NNC2=C(C=C(C=C2[N+](=O)[O-])C(F)(F)F)[N+](=O)[O-])F [Kobe2602] + N=C(N)NC(=N)NCCc1ccccc1 [Phenformin] (partner 250 µM)
A digest of the protocol:
(§1)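 Relative viability equals treated-well nuclei counts divided by vehicle-well nuclei counts. Counts came from 4× images of lung cancer cell lines grown in 1536-well plates for 5 days after pin-tool dosing on the day after seeding. Dosing used one drug alone or a fixed anchor-drug dose plus five library-drug doses (not always all listed) in √10 steps, and values are medians of duplicate plates.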

Compound in assay [2]: COc1cc2nccc(Oc3ccc(NC(=O)C4(C(=O)Nc5ccc(F)cc5)CC4)cc3)c2cc1OC [Cabozantinib] + C[C@@H](Oc1cc(-c2cnn(C3CCNCC3)c2)cnc1N)c1c(Cl)ccc(F)c1Cl [Crizotinib] (partner 1 µM)
A digest of the protocol: as §1

Compound in assay [3]: O[C@@H](COc1cccc2ncccc12)CN1CCN([C@@H]2c3ccccc3[C@@H]3[C@H](c4ccccc42)C3(F)F)CC1 [Zosuquidar] + CS(=O)(=O)CCNCc1ccc(-c2ccc3ncnc(Nc4ccc(OCc5cccc(F)c5)c(Cl)c4)c3c2)o1 [Lapatinib] (partner 2 µM)
The method, boiled down:
as §1

Compound in assay [4]: COc1cc2nccc(Oc3ccc(NC(=O)C4(C(=O)Nc5ccc(F)cc5)CC4)cc3)c2cc1OC [Cabozantinib] + CCNC(=O)c1noc(-c2cc(C(C)C)c(O)cc2O)c1-c1ccc(CN2CCOCC2)cc1 [Luminespib] (partner 0.01 µM)
The method, boiled down: as §1

In the case of HCC-78, the relative viability turned out to be 0.693 in assay [1] (first compound 0.2 µM); 0.699 in assay [1] (first compound 0.6325 µM); 0.736 in assay [1] (first compound 2 µM); 0.727 in assay [1] (first compound 6.325 µM); 0.9 in assay [1] (first compound 20 µM); 0.326 in assay [2] (first compound 0.02 µM). In addition, the relative viability in assay [2] (first compound 0.06325 µM) worked out at 0.356; in assay [2] (first compound 0.2 µM) it was 0.288; in assay [2] (first compound 0.6325 µM) it was 0.351; in assay [2] (first compound 2 µM), 0.318; in assay [3] (first compound 0.01 µM), 0.866; in assay [3] (first compound 0.03162 µM) it was 1.03. In addition, the relative viability in assay [3] (first compound 0.3162 µM) was 0.893; in assay [3] (first compound 1 µM), 0.572.

On to HCC-366, for which the relative viability in assay [1] (first compound 0.2 µM) was found to be 0.669; in assay [1] (first compound 0.6325 µM) it was 0.642; in assay [1] (first compound 2 µM), 0.618; in assay [1] (first compound 6.325 µM), 0.584; in assay [1] (first compound 20 µM), 0.61; in assay [2] (first compound 0.02 µM) it was 0.71. Further, the relative viability turned out to be 0.778 in assay [2] (first compound 0.06325 µM); 0.547 in assay [2] (first compound 0.2 µM); 0.358 in assay [2] (first compound 0.6325 µM); 0.385 in assay [2] (first compound 2 µM); 1.08 in assay [3] (first compound 0.01 µM); 1.08 in assay [3] (first compound 0.03162 µM). The relative viability in assay [3] (first compound 0.1 µM) stood at 1.15; in assay [3] (first compound 0.3162 µM) it was 1.01; in assay [3] (first compound 1 µM), 1.15.

Turning to HCC-827, the relative viability was 0.428 in assay [1] (first compound 0.2 µM); 0.441 in assay [1] (first compound 0.6325 µM); 0.464 in assay [1] (first compound 2 µM); 0.364 in assay [1] (first compound 6.325 µM); 0.413 in assay [1] (first compound 20 µM); 0.898 in assay [4] (first compound 0.02 µM). Moreover, the relative viability is 1.02 in assay [4] (first compound 0.06325 µM); 0.824 in assay [4] (first compound 0.6325 µM); 0.565 in assay [4] (first compound 2 µM); 0.888 in assay [2] (first compound 0.02 µM); 0.942 in assay [2] (first compound 0.06325 µM); 0.939 in assay [2] (first compound 0.6325 µM). For the same cell line, the relative viability in assay [2] (first compound 2 µM) is 0.978; in assay [3] (first compound 0.01 µM), 0.183; in assay [3] (first compound 0.03162 µM), 0.246; in assay [3] (first compound 0.1 µM), 0.178; in assay [3] (first compound 0.3162 µM) it was 0.19; in assay [3] (first compound 1 µM), 0.246.

Turning to HOP-62, the relative viability in assay [1] (first compound 0.2 µM) is 0.644; in assay [1] (first compound 0.6325 µM), 0.693; in assay [1] (first compound 2 µM) it was 0.66; in assay [1] (first compound 6.325 µM), 0.698; in assay [1] (first compound 20 µM) it was 0.603; in assay [4] (first compound 0.02 µM), 1.03. Moreover, the relative viability stood at 1 in assay [4] (first compound 0.06325 µM); 0.902 in assay [4] (first compound 0.2 µM); 0.881 in assay [4] (first compound 0.6325 µM); 0.838 in assay [4] (first compound 2 µM); 0.821 in assay [2] (first compound 0.02 µM); 1.06 in assay [2] (first compound 0.06325 µM). Moreover, the relative viability in assay [2] (first compound 0.2 µM) worked out at 1.14; in assay [2] (first compound 0.6325 µM), 0.89; in assay [2] (first compound 2 µM), 0.902; in assay [3] (first compound 0.01 µM), 0.862; in assay [3] (first compound 0.03162 µM) it was 1.05; in assay [3] (first compound 0.1 µM), 0.951. Further, the relative viability in assay [3] (first compound 0.3162 µM) and in assay [3] (first compound 1 µM) was 1.07 in each case.

In the case of IA-LM, the relative viability in assay [2] (first compound 0.02 µM) was 0.962; in assay [2] (first compound 0.06325 µM), 0.795; in assay [2] (first compound 0.2 µM) it was 0.908; in assay [2] (first compound 0.6325 µM), 0.755; in assay [2] (first compound 2 µM), 0.92; in assay [3] (first compound 0.03162 µM), 0.713. In addition, the figures for the relative viability in assay [3] (first compound 0.1 µM), in assay [3] (first compound 0.3162 µM) and in assay [3] (first compound 1 µM) were 0.802, 1.01 and 0.881, respectively.

Regarding LC-2-ad, the relative viability is 0.567 in assay [1] (first compound 0.2 µM); 0.618 in assay [1] (first compound 0.6325 µM); 0.512 in assay [1] (first compound 2 µM); 0.586 in assay [1] (first compound 6.325 µM); 0.55 in assay [1] (first compound 20 µM); 1.1 in assay [4] (first compound 0.06325 µM). Also, the relative viability worked out at 1.03 in assay [4] (first compound 0.2 µM); 0.914 in assay [4] (first compound 0.6325 µM); 0.956 in assay [4] (first compound 2 µM); 0.438 in assay [2] (first compound 0.02 µM); 0.606 in assay [2] (first compound 0.06325 µM); 0.493 in assay [2] (first compound 0.2 µM). Besides, the relative viability in assay [2] (first compound 0.6325 µM) was determined as 0.474; in assay [2] (first compound 2 µM), 0.467; in assay [3] (first compound 0.01 µM) it was 0.994; in assay [3] (first compound 0.03162 µM), 1.05; in assay [3] (first compound 0.1 µM) it was 0.993; in assay [3] (first compound 0.3162 µM), 0.989. For the same cell line, the relative viability in assay [3] (first compound 1 µM) came to 0.958.

In the case of LCLC-97TM1, the relative viability stood at 0.44 in assay [1] (first compound 0.2 µM); 0.428 in assay [1] (first compound 0.6325 µM); 0.434 in assay [1] (first compound 2 µM); 0.39 in assay [1] (first compound 6.325 µM); 0.42 in assay [1] (first compound 20 µM); 0.784 in assay [4] (first compound 0.02 µM). The relative viability stood at 0.817 in assay [4] (first compound 0.06325 µM); 0.875 in assay [4] (first compound 0.2 µM); 0.805 in assay [4] (first compound 0.6325 µM); 0.638 in assay [4] (first compound 2 µM); 0.354 in assay [2] (first compound 0.06325 µM); 0.49 in assay [2] (first compound 0.2 µM). The relative viability in assay [2] (first compound 0.6325 µM) is 0.365; in assay [2] (first compound 2 µM) it was 0.306; in assay [3] (first compound 0.01 µM) it was 1.07; in assay [3] (first compound 0.03162 µM), 1.13; in assay [3] (first compound 0.3162 µM), 1.27; in assay [3] (first compound 1 µM), 0.881.

As to LCLC-103H, the relative viability in assay [1] (first compound 0.2 µM) worked out at 0.359; in assay [1] (first compound 0.6325 µM) it was 0.381; in assay [1] (first compound 2 µM) it was 0.32; in assay [1] (first compound 6.325 µM), 0.343; in assay [1] (first compound 20 µM), 0.351; in assay [4] (first compound 0.02 µM), 1.07. The relative viability in assay [4] (first compound 0.06325 µM) came out at 0.962; in assay [4] (first compound 0.2 µM) it was 1.03; in assay [4] (first compound 0.6325 µM), 0.983; in assay [4] (first compound 2 µM) it was 0.905; in assay [2] (first compound 0.02 µM), 1; in assay [2] (first compound 0.06325 µM) it was 1.09. The results for the relative viability in assay [2] (first compound 0.2 µM), in assay [2] (first compound 0.6325 µM) and in assay [2] (first compound 2 µM) were 1.09, 1.02 and 1.04, respectively.

Regarding LK-2, the relative viability in assay [1] (first compound 0.2 µM) was found to be 0.461; in assay [1] (first compound 0.6325 µM), 0.579; in assay [1] (first compound 2 µM) it was 0.489; in assay [1] (first compound 6.325 µM) it was 0.624; in assay [1] (first compound 20 µM), 0.516; in assay [4] (first compound 0.06325 µM) it was 0.176. In addition, the relative viability was determined as 0.198 in assay [4] (first compound 0.6325 µM); 0.196 in assay [4] (first compound 2 µM); 0.225 in assay [2] (first compound 0.06325 µM); 0.201 in assay [2] (first compound 0.2 µM); 0.179 in assay [2] (first compound 0.6325 µM); 0.204 in assay [2] (first compound 2 µM). Further, the relative viability is 0.985 in assay [3] (first compound 0.01 µM); 0.892 in assay [3] (first compound 0.03162 µM); 0.923 in assay [3] (first compound 0.1 µM); 1.18 in assay [3] (first compound 0.3162 µM); 0.946 in assay [3] (first compound 1 µM).
